In patent publication US9474759B2 (priority 2011, dated 2016):
Like-named read-outs stand apart in the source and are kept apart here.

Legend:
MNV-1 [1] = experiment: microbe, parasite or virus in culture; details: Norwalk virus, read-out: Initial IC50 values against MNV-1
FIPV = experiment: Cell-based screening, FIPV in CRFK cells (Example 2); parameters: species or system feline infectious peritonitis virus; details: Alphacoronavirus 1; CRFK cells; read-out: Inhibition [ED50 (μM)] against various viruses: Coronavirus, FIPV
Description: (§1) 3. Cell-based screening of inhibitor. The effects of each inhibitor on the viral replication were examined. The list of viruses and corresponding cell lines are listed above in Table 2. Briefly, confluent cells were inoculated with virus at a MOI of 5 or 0.05 for 1 hr, and medium was replaced with medium containing mock-medium or each compound (up to 100 μM). The virus infected cells were further incubated for up to 96 hrs, and the replication of virus was measured by TCID50 assay with the 10-fold dilution of each sample used for virus titration (Reed and Muench, 1938). In some viruses, the virus protein and genome expression levels were detected by Western blot analysis and real-time qRT-PCR, respectively, as described below. The IC50s of the compounds were calculated.

Teschovirus = experiment: organism not typed; assay type: cell-based, porcine teschovirus; details: read-out: Inhibition [ED50 (μM)] against various viruses: Picornavirus, Teschovirus
[2] = biological target: FMDV 3Cpro (codon-optimized, N-terminal 6 His, recombinant) (Foot-and-mouth disease virus serotype O, UniProt P03305); experiment: biochemical
TGEV 3CL protease = TGEV 3CL protease (Porcine transmissible gastroenteritis coronavirus, UniProt P0C6Y5); experiment: FRET-based protease assay, TGEV 3CL protease (Example 5); assay type: biochemical, TGEV Miller strain; details: TGEV 3CL protease; read-out: IC50 against 3CL protease in the FRET assay
Description: The 3CL proteases are highly conserved among all coronaviruses, and feline coronavirus 3CL protease is closely related TGEV 3CL protease. Therefore we cloned and expressed the TGEV 3CL protease for the FRET assay. The cDNA encoding the full length of 3CL protease of TGEV Miller strain was amplified with RT-PCR as previously described. The primers contained the nucleotide sequence of the 3CL protease for cloning as well as the nucleotides for 6 Histidine in the forward primer. The amplified product was subcloned to pET-28a(+) vector (GenScript, Piscataway, N.J.). The expression and purification of the 3CL protease was performed with a standard method described previously by our lab (Chang et al., 2012b; Takahashi et al., 2012; Tiew et al., 2011).
Our protease inhibitor compounds and commercial cathepsin inhibitors CA074-Me and E64d were prepared in DMSO as stock solutions (10 mM), and further diluted in assay buffer consisting of 20 mM HEPES, 0.4 mM EDTA, 30% glycerol, 120 mM NaCl, and 4 mM DTT at pH 6. […] TGEV 3CL protease at a final concentration of 0.1˜0.2 μM and the substrate (Dabcyl-[…]-Edans; SEQ ID NO:2) at 10 μM were used for the studies. The substrate was purchased from Bachem Americas, Inc (Torrance, Calif.). Compounds at various concentrations (0˜50 μM) were pre-incubated with TGEV 3CL protease in 25 μl for 30 min at 37° C., and the same volume of substrate was added to a 96-well black plate. The mixtures were then incubated at 37° C. for 60 min, and fluorescence readings were obtained on a microplate reader at 360 nm excitation and 480 nm emission wavelengths. The relative fluorescence units (RFU) were calculated by subtracting background (substrate control well without protease) from the fluorescence readings. The dose-dependent FRET inhibition curves were fitted with variable slope (four parameters) using GraphPad Prism software (La Jolla, Calif.) in order to determine the compound concentration that gives a half-maximum response (IC50).

FCV [3] = experiment: Cell culture system, FCV replication in CRFK cells (Example 3); assay type: cell-based, feline calicivirus; details: Feline calicivirus; cell-based assay, CRFK cells; read-out: IC50 against FCV replication
HAV = experiment: Cell-based screening, HAV (Example 2); parameters: species or system hepatitis A virus; details: Picornaviridae; read-out: Inhibition [ED50 (μM)] against various viruses: Picornavirus, HAV
Description: as §1

[4] = biological target: recombinant 3C or 3CL of MD145 (Norovirus Hu/GII.4/MD145-12/1987/US (Maryland virus), UniProt Q8V0P3); experiment: FRET protease assay, MD145 3CL (Example 2); assay type: biochemical, norovirus strain MD145
[5] = biological target: MNV-1 3CLpro (codon-optimized, full-length, recombinant) (Norovirus, UniProt Q80J95); experiment: biochemical; parameters: species or system murine norovirus-1 (GV)
MNV-1 [6] = experiment: Cell-based screening, MNV-1 in RAW267.4 cells (Example 2); parameters: species or system murine norovirus; details: Norwalk virus; RAW267.4 cells; read-out: Inhibition [ED50 (μM)] against various viruses: Calicivirus, MNV-1
Description: as §1

EV71 = experiment: Cell-based screening, EV71 in Vero cells (Example 2); parameters: species or system enterovirus 71; details: Enterovirus A, EV71; Vero cells; read-out: Inhibition [ED50 (μM)] against various viruses: Picornavirus, EV71
Description: as §1

TGEV = experiment: Cell-based screening, TGEV in ST cells (Example 2); parameters: species or system transmissible gastroenteritis virus; details: Alphacoronavirus 1; ST cells; read-out: Inhibition [ED50 (μM)] against various viruses: Coronavirus, TGEV
Description: as §1

FECV-1683 = FECV-1683 replication in CRFK cells, TCID50 method; assay type: cell-based, feline coronavirus; details: Alphacoronavirus 1, MOI 0.05, mean ± SEM
Description: (§2) Crandell Rees feline kidney (CRFK) cells were maintained in minimal essential medium containing 2-5% fetal bovine serum and antibiotics (chlortetracycline [25 μg/ml], penicillin [250 U/ml], and streptomycin [250 μg/ml]). FIPV WSU 79-1146 and FECV WSU 79-1683 strains are the prototypes of serotype II FIPV or FECV, respectively, and were purchased from ATCC (Manassas, Va.).
(§3) The cells were further incubated in the presence of each compound for 1 hr at 37° C. Then […] or FECV-1683 was inoculated to the cells at a multiplicity of infection (MOI) of 0.05 or 5.
(§4) b. TCID50 Method. A standard TCID50 method with the 10-fold dilution of each sample was used for virus titration.

229E = experiment: Cell-based screening, 229E in MRC-5 cells (Example 2); details: Human coronavirus 229E, MRC5; MRC-5 cells; read-out: Inhibition [ED50 (μM)] against various viruses: Coronavirus, 229E
Description: as §1

FIPV-1146 = FIPV-1146 replication in CRFK cells, TCID50 method; assay type: cell-based, feline coronavirus; details: Alphacoronavirus 1, MOI 0.05, mean ± SEM
Description: as §2, §3, §4

[7] = biological target: MD145 3CLpro (codon-optimized, full-length, N-terminal 6 His, recombinant) (Lordsdale virus, UniProt P54634); experiment: biochemical; parameters: species or system norovirus strain MD145 (human norovirus GII)
[8] = system: Norwalk virus (HG23 cells); experiment: microbe, parasite or virus in culture; assay type: cell-based; details: HG23, read-out: Inhibition [ED50 (μM)] against various viruses: Calicivirus, HG23 cells
FCV [9] = experiment: Cell-based screening, FCV in CRFK cells (Example 2); details: Feline calicivirus; CRFK cells; read-out: Inhibition [ED50 (μM)] against various viruses: Calicivirus, FCV
Description: as §1

[10] = biological target: NV 3CLpro (codon-optimized, full-length, N-terminal 6 His, recombinant) (Norovirus, UniProt Q83883); experiment: biochemical; parameters: species or system norovirus strain Norwalk
[11] = biological target: PV 3Cpro (codon-optimized, N-terminal 6 His, recombinant) (Poliovirus type 1, UniProt P03300); experiment: biochemical; parameters: species or system poliovirus (poliomyelitis virus)
PV 3Cpro (codon-optimized, N-terminal 6 His, recombinant), sequence (P03300 1566-1748 limits assumed): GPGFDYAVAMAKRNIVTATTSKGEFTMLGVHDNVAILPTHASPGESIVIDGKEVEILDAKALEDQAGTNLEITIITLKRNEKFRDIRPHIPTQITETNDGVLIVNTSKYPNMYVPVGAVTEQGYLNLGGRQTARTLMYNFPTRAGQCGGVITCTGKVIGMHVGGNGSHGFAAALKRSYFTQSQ

recombinant 3C or 3CL of MD145, sequence (Q8V0P3 entry or part of it): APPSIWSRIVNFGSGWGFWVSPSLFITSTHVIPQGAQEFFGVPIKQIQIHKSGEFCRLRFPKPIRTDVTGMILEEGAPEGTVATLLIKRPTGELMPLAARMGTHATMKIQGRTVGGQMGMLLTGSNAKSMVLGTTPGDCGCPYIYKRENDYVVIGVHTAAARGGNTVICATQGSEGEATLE
FMDV 3Cpro (codon-optimized, N-terminal 6 His, recombinant), sequence (P03305 1650-1862 limits assumed): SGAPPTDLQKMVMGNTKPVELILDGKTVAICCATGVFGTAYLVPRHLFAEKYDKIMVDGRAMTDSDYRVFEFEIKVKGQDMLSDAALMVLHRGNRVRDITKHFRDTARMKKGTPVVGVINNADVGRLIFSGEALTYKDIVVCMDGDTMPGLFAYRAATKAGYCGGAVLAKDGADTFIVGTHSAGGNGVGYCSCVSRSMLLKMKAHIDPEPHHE
TGEV 3CL protease, sequence (P0C6Y5 2879-3180): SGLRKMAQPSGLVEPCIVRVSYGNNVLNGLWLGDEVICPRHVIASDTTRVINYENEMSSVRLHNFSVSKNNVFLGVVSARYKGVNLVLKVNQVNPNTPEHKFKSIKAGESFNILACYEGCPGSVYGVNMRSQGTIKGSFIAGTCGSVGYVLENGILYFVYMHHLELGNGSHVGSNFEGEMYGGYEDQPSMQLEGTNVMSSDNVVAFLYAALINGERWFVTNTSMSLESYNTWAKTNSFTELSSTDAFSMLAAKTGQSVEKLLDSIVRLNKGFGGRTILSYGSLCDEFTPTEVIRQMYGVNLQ
NV 3CLpro (codon-optimized, full-length, N-terminal 6 His, recombinant), sequence (Q83883 1101-1281): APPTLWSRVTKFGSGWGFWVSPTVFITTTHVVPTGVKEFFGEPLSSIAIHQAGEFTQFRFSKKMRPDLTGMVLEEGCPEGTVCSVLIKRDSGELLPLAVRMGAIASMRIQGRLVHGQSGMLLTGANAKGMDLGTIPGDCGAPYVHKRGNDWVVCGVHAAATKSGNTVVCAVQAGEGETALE
MD145 3CLpro (codon-optimized, full-length, N-terminal 6 His, recombinant), sequence (P54634 1009-1189): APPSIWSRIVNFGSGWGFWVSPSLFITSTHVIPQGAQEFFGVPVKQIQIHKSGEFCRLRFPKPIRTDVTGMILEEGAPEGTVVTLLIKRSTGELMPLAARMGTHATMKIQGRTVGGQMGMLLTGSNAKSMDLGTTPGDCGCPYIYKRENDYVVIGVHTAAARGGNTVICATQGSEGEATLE
MNV-1 3CLpro (codon-optimized, full-length, recombinant), sequence (Q80J95 995-1177): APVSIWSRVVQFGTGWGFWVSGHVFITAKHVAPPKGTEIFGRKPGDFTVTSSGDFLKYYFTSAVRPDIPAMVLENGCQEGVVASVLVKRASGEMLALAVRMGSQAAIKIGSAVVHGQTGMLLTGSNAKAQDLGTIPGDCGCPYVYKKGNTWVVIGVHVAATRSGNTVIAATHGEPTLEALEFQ

CC(C)C[C@H](NC(=O)OCc1ccccc1)C(=O)N[C@@H](CC1CCNC1=O)C(O)S(=O)(=O)O (stereo partly shown) [GC376]
IC50 (MNV-1 [1]): 6200 to 7100 nM
EC50 (FIPV): 0.2 µM
EC50 (Teschovirus): 0.15 µM
IC50 [2]: 1160 ± 750 nM
IC50 (TGEV 3CL protease): 820 nM
IC50 (FCV [3]): 35000 nM
EC50 (HAV): 50 µM
IC50 [4]: 9.8 µM
IC50 [5]: 1120 nM
EC50 (MNV-1 [6]): 5.3 µM
EC50 (EV71): 10 µM
EC50 (TGEV): 0.15 µM
EC50 (FECV-1683; 24 hr post infection, read-out: Inhibition [ED50 (μM)] against FECV-1683, 24 hrs): 0.17 ± 0.11 µM
EC50 (FECV-1683; 48 hr post infection, read-out: Inhibition [ED50 (μM)] against FECV-1683, 48 hrs): 0.28 ± 0.1 µM
EC50 (229E): 0.3 µM
EC50 (FIPV-1146; 24 hr post infection, read-out: Inhibition [ED50 (μM)] against FIPV-1146, 24 hrs): 0.15 ± 0.05 µM
EC50 (FIPV-1146; 48 hr post infection, read-out: Inhibition [ED50 (μM)] against FIPV-1146, 48 hrs): 0.3 ± 0.1 µM
IC50 [7]: 960 nM
EC50 [8]: 1.8 µM
EC50 (FCV [9]): 35 µM
IC50 [10]: 490 ± 50 nM
IC50 [11]: 1770 ± 310 nM
